Patent US7968109B2, “Liquid compositions for treating plant propagation materials” (Syngenta Crop Protection Inc., priority 2005, dated 2011)

Columns and labels:
[1] = tested on: Colorado Potato Beetles; experiment: Control of Colorado Potato Beetles on potatoes (defoliation); type: in vivo
Protocol: Comparative trials were conducted to show the protection of the formulation described herein against different insect pests.

[2] = Selective loading of active ingredient on cut side and skin side of tuber; type: physicochemical, potato; settings: analyte fludioxonil
Description: Generally, treatment of potato tubers and/or cut seeds with liquid pesticides results in the majority of the pesticide settling on the cut side of the seed rather than on the skin side of the seed. Such affinity for the cut side is thought to be based on the pesticides' affinity for water. […] Rather, the pesticidal action is more useful on the skin side of the tuber, where the eyes are present and where germination occurs.
Although not wanting to be bound by any particular theory, it is thought that the nonpolar nature of the waxes and silicas present in the formulations of the present invention have affinity for the skin side, causing a greater loading of the active ingredients on the skin side.

Row | SMILES | % Defoliation ([1]; 102 days after planting (Wash. State)) [%] | % Defoliation ([1]; 105 days after planting (Idaho)) [%] | Amount of fludioxonil present on cut side of tuber ([2]; cut side) | Amount of fludioxonil present on skin side of tuber ([2]; skin side)
1 | O=[N+]([O-])NC1=NCCN1Cc1ccc(Cl)nc1 [Imidacloprid, imidacloprid] | 9 | 0 |  | 
2 | N#Cc1c[nH]cc1-c1cccc2c1OC(F)(F)O2 [Fludioxonil] |  |  | 21 | 21
